Laboratory results from publication PMC3543460, “Structure-Activity Relationships of the Antimicrobial Peptide Arasin 1 — And Mode of Action Studies of the N-Terminal, Proline-Rich Region” (PLoS ONE, 2013).
Values after ≈ are worked out from the molar mass of the structure shown. Peptide text beside a SMILES is read from it. * marks the point of attachment. Acm = CC(=O)NC*

Legend:
E. coli ATCC 25922 = type: cell-based, Escherichia coli; conditions: ATCC 25922, 24 h
Experimental: (§1) Escherichia coli (ATCC 25922), E. coli HB101, Pseudomonas aeruginosa (ATCC 27853), Staphylococcus aureus (ATCC 9144) and Corynebacterium glutamicum (ATCC 13032) were grown at 37°C in Mueller Hinton agar (MH; Difco Laboratories, Detroit, USA). The yeasts Candida albicans (ATCC 10231) and Saccharomyces cerevisiae spp and the mold Botrytis cinerea 101 [33] were cultivated on potato dextrose agar supplemented with 2% glucose at room temperature (RT).
(§2) Determination of the MIC against bacteria was performed by continuous monitoring of bacterial growth using a Bioscreen C microbiology reader (Labsystems Oy, Helsinki, Finland). The synthetic peptides were tested for antibacterial and antifungal activity at final concentrations (prepared from serial two-fold dilutions) ranging from 0.2 µM to 100 µM. The test was performed in 100-well flat-bottomed honeycomb plates, in which 50 µl peptide solution was incubated with 50 µl of a suspension of an actively growing culture of bacteria diluted to a starting concentration of 2.5×10^5 CFU/ml in Mueller Hinton Broth (MHB). The growth chamber was maintained at 37°C during the incubation period. The absorbance was measured by a turbidometric method with vertical light photometry and a wide band filter (420–580 nm). MIC was defined as the lowest concentration resulting in no visible bacterial growth after 24 h.

P. aeruginosa ATCC 27853 = type: cell-based, Pseudomonas aeruginosa; conditions: ATCC 27853, 24 h
Experimental: as §1, §2

C. glutamicum ATCC 13032 = type: cell-based, Corynebacterium glutamicum; conditions: ATCC 13032, 24 h
Experimental: as §1, §2

S. aureus ATCC 9144 = type: cell-based, Staphylococcus aureus; conditions: ATCC 9144, 24 h
Experimental: as §1, §2

S. cerevisiae spp. = type: cell-based, Saccharomyces cerevisiae; conditions: 48 h
Experimental: as §1
(§3) Fungal spores were dissolved in potato dextrose broth (Difco, Lawrence, KS, USA) and the cell concentration was determined and adjusted after counting in a Bürker chamber. Botrytis cinerea was filtered through a piece of cotton before counting. An aliquot of 50 µl of fungal spores (final concentration 2×10^5 spores/ml) were inoculated in 96-well Nunclon™ microtitre plates (Nagle Nunc Int. Roskilde, Denmark) along with 50 µl of synthetic peptide dissolved in Milli-Q water. Cultures were grown in a dark moist chamber without shaking at 20°C for S. cerevisiae and B. cinerea, and at 37°C for C. albicans. Growth inhibition was determined microscopically after 48 h of incubation. Inhibitory concentrations (IC50) was defined as the lowest concentration tested which yielded less than 50% visible growth compared to the growth control (fungi). Each peptide was tested in parallels in three individual runs for the antimicrobial assays.

C. albicans ATCC 10231 = type: cell-based, Candida albicans; conditions: ATCC 10231, 48 h
Experimental: as §1, §3

B. cinerea 101 = type: cell-based, Botrytis cinerea; conditions: 101, 48 h
Experimental: as §1, §3

Chitin-binding assay = conditions: 50 µg peptide with 40 mg chitin, washes with 0.1 M NaCl, 1 M NaCl, 10% acetic acid at 95°C; RP-HPLC of supernatants
Experimental: The ability of arasin 1(1–23) and arasin 1(20–37)-Acm to bind chitin was estimated using a modified protocol from Kawabata et al.. Briefly, 50 µg of peptide was incubated with 40 mg chitin in 800 µl buffer (50 mM Tris-HCl, 0.1 M NaCl, pH 8.0). Sequentially chitin was incubated at RT with 800 µl buffer containing 0.1 M NaCl and 1 M NaCl, respectively, and finally at 95°C with 10% acetic acid. All incubations were performed for 10 min, and chitin was collected by centrifugation at 1000×g for 5 min between each step. Supernatants were subjected to RP-HPLC using a Sunfire™ Prep C18 column (Waters; 100 Å 5 µm; 10×250 mm, MA, USA), with a linear gradient from 8 to 60% acetonitrile and a flow of 3 ml/min over 60 min. Absorbance was monitored at 220 nm and the resulting chromatograms were compared.

E. coli = test: Antimicrobial activity at varied MH concentration; type: cell-based, Escherichia coli; conditions: results not shown
Text: In contrast to the results from E. coli and P. aeruginosa, the C-terminal part of arasin 1(1–23) alone arasin 1(7–23) and 1(9–23) inhibits C. glutamicum and all the fungi. At the same time this antibacterial and antifungal activity is strictly dependent on a fragment between aa 13–23. This indicates a somewhat different mode of action for Gram- negative and Gram-positive bacteria, respectively. Likewise the mode of action against fungi is likely different. It is tempting to speculate that the N-terminal 5–10 amino acids might be involved in arasin 1(1–23) transfer across the outer membrane while the C-terminal part might bind the molecular target which is responsible for growth inhibition at low concentrations. The antimicrobial assays were all performed in MH or potato dextrose medium at a final concentration of 50% strength for bacteria and fungi, respectively. […] This means that the peptides are very sensitive to medium composition, and perhaps also salinity and/or ionic strength. […] In some studies, the use of diluted or poor medium instead of rich medium in MIC and mode of action studies is claimed to increase the sensitivity of the assays, [47]. The reasons of the medium-dependence have not been further evaluated, and 50% MH was used as the standard medium for the mode of action studies.

E. coli HB101 [1] = test: Bactericidal assay (killing kinetics, colony counts); type: cell-based, Escherichia coli; conditions: 50% MHB, 1×10^6 CFU/ml, 37°C
Experimental: During incubation, aliquots were removed at different time intervals, washed in buffered high salt solution (10 mM Na-phosphate, 400 mM NaCl, 10 mM MgCl2), diluted and plated on MH plates. The number of bacterial CFU was determined after approximately 48 h of incubation at 37°C.

[2] = test system: E. coli HB101 constitutively expressing the luxCDABE operon; test: Cell viability assay (luxCDABE luminescence); type: cell-based, Escherichia coli; conditions: 50% MH, OD600 0.2, 30°C
Experimental: E.coli HB101 was transformed with the plasmid pCGLS-11 to enable constitutive bacterial luciferase expression from the luxCDABE operon. The resulting strain was used for cell viability assays as follows. An overnight culture in MH medium with ampicillin (100 µg/ml) was pelleted at 3000×g for 10 min and washed in MH medium before re-suspending the cells in 50% MH medium with a final OD600 of approximately 0.2. After 30 min of incubation at 30°C the cells were again adjusted to an OD600 of 0.2. An aliquot of 95 µl of bacterial solution was dispensed into each well of a black 96 well microtiter plate with transparent bottom (Falcon, Bredford, MA, USA). To achieve the indicated concentrations, a multi-channel pipette was used to add 5 µl of a two-fold dilution series of peptide solution in water to 8 wells simultaneously. The plate was loaded into a Perkin-Elmer Envision microtiter plate reader immediately after addition of the peptide (arasin 1(1–23), PR-39(1–26) or cecropin P1) and the measurement started 30 sec later because of handling events and 2 seconds of shaking inside the plate reader. Light production and growth (OD595) of the sensor bacteria was followed for 3 h under repeated shaking cycles before each measurement at 30°C.

[3] = test system: E. coli HB101 expressing eukaryotic luciferase lucGR; test: Membrane integrity assay I (D-luciferin influx, lucGR luciferase); type: cell-based, Escherichia coli
Text: Escherichia coli HB101 was transformed with the plasmids pCSS962 and the helper plasmid pGB3 to allow for constitutive expression of the eukaryotic luciferase gene lucGR. The resulting strain was isogenic to the other E. coli strains used. The membrane permeabilization assay used is a modification of the protocol described by Virta et al.. The assay is based on E. coli cells, expressing a eukaryotic luciferase, depending on externally added D-luciferin as a substrate to emit light. At neutral pH the bacterial cytoplasmic membrane efficiently prevents uptake of external D-luciferin. However, disruption of the membrane by e.g. a membrane active AMP enhances D-luciferin influx and thereby induces bacterial light emission. Preparation of the cells and the assay plate was done as described for the viability assay above. However, chloramphenicol (30 µg/ml) was added in addition to ampicillin to the overnight culture, and D-luciferin sodium-salt (Biosynth, Staad, Switzerland) was added to the bacteria to final concentration of 1 mM. To allow shorter measurement intervals, only 8 wells were measured simultaneously. Arasin 1(1–23), PR-39(1–26) and cecropin P1 were tested for their membrane disruptive capacity.

E. coli HB101 [4] = test: Membrane integrity assay II (propidium iodide, flow cytometry); type: cell-based, Escherichia coli; conditions: 50% MH, 37°C, four independent experiments
Experimental: The effect of arasin 1(1–23) and cecropin P1 on membrane permeabilization was also studied by measuring the percentage of propidium iodide (PI) positive cells by flow cytometry. Samples of 1×10^6 cells/ml of E. coli HB101 were incubated in 50% MH with peptides at 37°C for different time span. After incubation, PI (Sigma Aldrich, Saint Louis, MO, USA) was added to the peptide-treated bacteria at a final concentration of 10 µg/ml. The cells were analyzed after 4 min of incubation with PI at 37°C in the flow cytometer as described.

Compound: CC(=O)NCSC[C@H](NC(=O)[C@H](CC(N)=O)NC(=O)[C@H](CSCNC(C)=O)NC(=O)[C@@H]1CCCN1C(=O)[C@H](CCCNC(=N)N)NC(=O)[C@@H]1CCCN1C(=O)[C@H](CCCNC(=N)N)NC(=O)[C@@H](N)Cc1ccccc1)C(=O)N[C@@H](Cc1ccc(O)cc1)C(=O)N[C@@H](C)C(=O)N1CCC[C@H]1C(=O)N1CCC[C@H]1C(=O)N[C@@H](CSCNC(C)=O)C(=O)N1CCC[C@H]1C(=O)N[C@@H](CSCNC(C)=O)C(=O)N[C@@H](CC(=O)O)C(=O)N[C@@H](CCCNC(=N)N)C(=O)N[C@@H](Cc1c[nH]c2ccccc12)C(=O)O [Arasin 1(20–37)-Acm] (H-FRPRPC(Acm)NC(Acm)YAPPC(Acm)PC(Acm)DRW-OH; N-terminus and C-terminus assumed)
- MIC E. coli ATCC 25922 (E. coli ATCC 25922): >100 µM
- MIC P. aeruginosa ATCC 27853 (P. aeruginosa ATCC 27853): >100 µM
- MIC C. glutamicum ATCC 13032 (C. glutamicum ATCC 13032): >100 µM
- MIC S. aureus ATCC 9144 (S. aureus ATCC 9144): >100 µM
- IC50 (S. cerevisiae spp.): > 100 µM
- IC50 (C. albicans ATCC 10231): > 100 µM
- IC50 (B. cinerea 101): > 100 µM
- binding to chitin (Chitin-binding assay): did not bind tightly to chitin

Compound: Bac7(1–16): fragment of the mammalian proline-rich antimicrobial peptide Bac7 (RRIRPRPPRLPRPRPR; Bactenecin 7; UniProt P19661 131-146, looked up, fragment)
- change of antimicrobial activity against E. coli by varying the MH concentration (E. coli): did not change the antimicrobial activity

Compound: CC[C@H](C)[C@H](NC(=O)[C@@H]1CCCN1C(=O)[C@H](CCCCN)NC(=O)[C@@H]1CCCN1C(=O)[C@H](CCCNC(=N)N)NC(=O)CNC(=O)[C@@H]1CCCN1C(=O)[C@H](Cc1ccccc1)NC(=O)[C@@H]1CCCN1C(=O)[C@H](CCCNC(=N)N)NC(=O)[C@@H]1CCCN1C(=O)[C@H](CCCNC(=N)N)NC(=O)CNC(=O)[C@@H]1CCCN1C(=O)[C@H](CO)NC(=O)[C@@H]1CCCN1C(=O)[C@H](Cc1c[nH]c2ccccc12)NC(=O)[C@H](CCCNC(=N)N)NC(=O)[C@@H](N)CO)C(=O)N[C@@H](Cc1ccccc1)C(=O)N[C@@H](CCCNC(=N)N)C(=O)N1CCC[C@H]1C(=O)N[C@@H](CCCNC(=N)N)C(=O)O [Arasin 1(1–23)] (H-SRWPSPGRPRPFPGRPKPIFRPR-OH; N-terminus and C-terminus assumed)
- MIC E. coli ATCC 25922 (E. coli ATCC 25922): 6.3 µM (≈ 17.3 µg/mL)
- MIC P. aeruginosa ATCC 27853 (P. aeruginosa ATCC 27853): 12.5 µM (≈ 34.3 µg/mL)
- MIC C. glutamicum ATCC 13032 (C. glutamicum ATCC 13032): 0.8 µM (≈ 2.19 µg/mL)
- MIC S. aureus ATCC 9144 (S. aureus ATCC 9144): >100 µM
- IC50 (S. cerevisiae spp.): 12.5 µM
- IC50 (C. albicans ATCC 10231): 12.5 µM
- IC50 (B. cinerea 101): 12.5 µM
- effect on viable cell count at MIC (E. coli HB101 [1]; 4 µM (MIC), up to 4 h): inhibition of bacterial growth without decreasing the number of viable cells
- reduction of viable E. coli cells (E. coli HB101 [1]; 20 µM (5×MIC), after 30 min): 1 log
- luminescence compared to untreated bacteria ([2]; after 10 min, at 10-fold MIC): more than 60%
- luminescence compared to untreated bacteria ([2]; at MIC values (5 µM)): more than 80%
- light emission (D-luciferin influx) at concentrations above MIC ([3]; 1 mM D-luciferin): doubling of light emission
- light emission (D-luciferin influx) at concentration around MIC ([3]; compared with cecropin P1 treatment, 1 mM D-luciferin): Minimal amounts of light
- time at which permeabilization peaked ([3]; high concentrations of peptide): approximately 10 min
- PI-positive (permeabilized) cells (E. coli HB101 [4]; peptide at 5×MIC (20 µM), 1×10^6 cells/ml): 30%
- PI-positive (permeabilized) cells (E. coli HB101 [4]; peptide at 10×MIC (40 µM), after 15 min of treatment): approximately 75%
- PI-positive (permeabilized) cells (E. coli HB101 [4]; peptide at MIC (4 µM), 1×10^6 cells/ml, background subtracted): ~10%
- binding to chitin (Chitin-binding assay): strong binding of the peptide to chitin
